Assay results published in ChEMBL document CHEMBL1150884, “Antifungal amide from leaves of Piper hispidum” (1998).

Test system: Cladosporium sphaerospermum
Test: Antifungal activity against Cladosporium sphaerospermum after 72 hrs in dark by TLC assay
Assay type: functional

Q: With `O=C(/C=C\C=C/CCc1ccc2c(c1)OCO2)N1CCCC1` as the compound, how does the MIC read?
A: The MIC was 8 µg.
